From patent US20260297542A1, “HERBICIDE RESISTANT PLANTS” (SYNGENTA CROP PROTECTION AG, priority 2023, published 2026) come the findings set out here.

Holding throughout (assay): E. coli hemG growth inhibition by herbicide, AtPPO1 variant
Common to all, as to assay type: cell-based
Settings in all cases: read-out: percentage growth inhibition

One assay has as its target T1, AtPPO1 K173H (Arabidopsis thaliana, UniProt P55826, K173H).
T1 construct: expressed in transfected cells; host or cells: E. coli BL21(DE3) hemG (hemG replaced by CmR), pET24a plasmid
T1 sequence (P55826 35-537 K173H): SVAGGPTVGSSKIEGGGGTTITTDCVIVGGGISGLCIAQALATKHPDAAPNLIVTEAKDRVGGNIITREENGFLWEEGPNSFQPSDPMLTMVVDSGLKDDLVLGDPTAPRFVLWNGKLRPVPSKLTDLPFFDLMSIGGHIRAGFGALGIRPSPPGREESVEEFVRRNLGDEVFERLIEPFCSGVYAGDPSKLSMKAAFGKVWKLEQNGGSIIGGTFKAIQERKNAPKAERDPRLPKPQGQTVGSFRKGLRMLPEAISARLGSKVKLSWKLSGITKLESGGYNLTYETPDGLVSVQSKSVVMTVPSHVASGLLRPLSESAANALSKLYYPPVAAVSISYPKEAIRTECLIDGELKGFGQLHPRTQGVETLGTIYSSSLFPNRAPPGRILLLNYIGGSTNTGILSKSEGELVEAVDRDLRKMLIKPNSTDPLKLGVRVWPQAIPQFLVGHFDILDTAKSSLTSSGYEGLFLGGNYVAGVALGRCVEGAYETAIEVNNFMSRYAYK
The essentials:
(§1)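 AtPPO1 variants from a site-saturation library, codon-optimised and T7-driven in pET24a, were expressed in E. coli BL21(DE3) lacking hemG (hemG replaced by CmR). Growth in Terrific broth with 0.1 mM IPTG plus 6.25 ppm herbicide 0 or E, 0.78 ppm herbicide B, or DMSO was read as OD600 after 24 h at 37° C; inhibition was calculated against the DMSO culture.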

The target of a further assay is T2, AtPPO1 V447I (Arabidopsis thaliana, UniProt P55826, V447I).
T2 construct: expressed in transfected cells; host or cells: E. coli BL21(DE3) hemG (pET24a, T7 promoter)
T2 sequence (P55826 35-537 V447I): T1 sequence (P55826 35-537 K173H) with H139K, V413I
The essentials: as §1

The target in the next assay is T3, AtPPO1 D448L (Arabidopsis thaliana, UniProt P55826, D448L).
T3 construct: expressed in transfected cells; host or cells: E. coli BL21(DE3) hemG, pET24a plasmid
T3 sequence (P55826 35-537 D448L): T1 sequence (P55826 35-537 K173H) with H139K, D414L
In a few lines:
as §1

A further assay has as its target T4, AtPPO1 D448H (Arabidopsis thaliana, UniProt P55826, D448H).
T4 construct: expressed in transfected cells; host or cells: E. coli BL21(DE3) hemG (pET24a, T7 promoter)
T4 sequence (P55826 35-537 D448H): T1 sequence (P55826 35-537 K173H) with H139K, D414H
The essentials:
as §1

SMILES strings stand for the structures. Where a chain is given by its changes, count along the chain named.

As to `C#CCN1C(=O)C(F)(F)Oc2cc(F)c(-n3c(=O)n(C)c(=S)n(C)c3=O)cc21` [Herbicide B, trifludimoxazin], the inhibition at 0.78 ppm at AtPPO1 K173H was found to be 29%; on AtPPO1 V447I, 35%; on AtPPO1 D448L, 38%; on AtPPO1 D448H, 31%.

As for `CCOC(=O)[C@]1(C)CC(c2cc(-n3c(=O)n(C)c(=S)n(C)c3=O)c(F)cc2Cl)=NO1` [Herbicide D, ethyl (5S)-3-[2-chloro-5-(3,5-dimethyl-2,6-dioxo-4-thioxo-1,3,5-triazinan-1-yl)-4-fluoro-phenyl]-5-methyl-4H-isoxazole-5-carboxylate], the inhibition at 6.25 ppm was 34% at AtPPO1 K173H, 36% at AtPPO1 V447I, 38% at AtPPO1 D448L and 26% on AtPPO1 D448H.

Regarding `CC(C)N(C)S(=O)(=O)NC(=O)c1cc(-n2c(=O)cc(C(F)(F)F)n(C)c2=O)c(F)cc1Cl` [Herbicide E, saflufenacil], the inhibition at 6.25 ppm at AtPPO1 K173H stood at 55%; at AtPPO1 V447I, 61%; at AtPPO1 D448L it was 54%; at AtPPO1 D448H, 57%.
